According to patent US6627647B1, “Substituted 1-(4-aminophenyl)imidazoles and their use as anti-inflammatory agents” (Boehringer Ingelheim Pharmaceuticals, Inc., priority 2000, dated 2003):

Tested on: IL-2 promoter/enhancer
Assay: IL-2 promoter assay (luciferase reporter in J.1F/C6 Jurkat cells)
Assay type: cell-based
Conditions: Homo sapiens; J.1F/C6 Jurkat cell line, induction with ionomycin and PMA; read-out: IC50, inhibition of luciferase activity in IL-2 promoter assay
Text: The IL-2 promoter assay measures transcriptional activation of a luciferase reporter gene which has been placed under control of the IL-2 promoter/enhancer. All the known regulatory features of the IL-2 gene are contained within a ˜300 bp sequence immediately upstream of the open reading frame. The region −328 to +35 relative to the transcription start site of the IL-2 gene is obtained by […] of human genomic DNA and is subcloned into the promoterless luciferase reporter vector pGL2-Basic (Promega). The resulting construct, pIL2P-luc, and a vector containing a neomycin resistance gene, pcDNA/Neo (Invitrogen), are linearized and stably transfected into Jurkat cells (a human T-cell line) by electroporation.
For screening compounds, the cells are pelleted by centrifugation, washed once with PBS, resuspended in RPMI (phenol red-free) containing 5% FBS, and dispensed into 96-well, white microtiter plates (Packard) at 50,000 cells/well. The cells are pre-incubated with compounds (1 μg/ml) for 15 min prior to addition of ionomycin (1 μg/ml) and PMA (10 ng/ml) in a final volume of 100 μl. Following a 5 hr incubation at 37° C. in a humidified incubator, 100 μl of Luc-Lite lysis buffer/luciferase assay buffer (Promega) is added and luminescence measured using a Packard TopCount scintillation counter/luminometer.

`C=CC[C@@H]1/C=C(\C)C[C@H](C)C[C@H](OC)[C@H]2O[C@@](O)(C(=O)C(=O)N3CCCC[C@H]3C(=O)O[C@H](/C(C)=C/[C@@H]3CC[C@@H](O)[C@H](OC)C3)[C@H](C)[C@@H](O)CC1=O)[C@H](C)C[C@@H]2OC` [FK506] was tested, and the IC50 was 0.3 nM.
